According to patent US5859019A, “Methods for protecting against cardiac ischemia by administering adenosine A2a receptor antagonists” (priority 1997, dated 1999):

Tests used:
[1] = test system: rat brain A1 and A2 receptors; conditions: rat brain adenosine receptors, radioligand binding; cited from earlier work
[2] = test system: ventricular cells cultured from chick embryos; assay: Hypoxia-induced injury / preconditioning of cultured ventricular cells (% cells killed, CK released); format: cell-based; conditions: for Ability to replace preconditioning hypoxia (protection against injury by ninety-minute hypoxia; % cells killed, CK released): agent given for 5 min in place of preconditioning hypoxia, before 90-min hypoxia, adenosine 10 μM, R-PIA 10 μM; for Ability to replace preconditioning hypoxia (protection against injury by ninety-minute hypoxia; % cells killed, CK released) / Effect on protection by preconditioning hypoxia (% cells killed, CK released): CGS21680 1 μM; for Effect on protection by preconditioning hypoxia (% cells killed, CK released): agent present during five-minute preconditioning hypoxia, CSC 1 μM, 8-SPT 100 μM, isoproterenol 0.3 μM, forskolin 1 μM, BayK 8644 0.1 μM; for EC (maximal effect): Gallus gallus, agonist replacing preconditioning hypoxia, read-out: Concentration giving maximal preconditioning effect
Description: Ventricular cells were cultured from chick embryos 14 days in ovo, according to a previously described procedure (20, 27). Cells were plated at a density of 400,000 cells per ml and cultivated in a humidified 5% CO2 -95% air mixture at 37° C. […] For preconditioning studies, the medium was changed to a HEPES-buffered medium containing (mM) 139 NaCl, 4.7 KCl, 0.5 MgCl2, 0.9 CaCl2, 5 HEPES (N-2-hydroxyethylpiperazine-N'-2-ethanesulfonic acid) and 2% fetal bovine serum, pH=7.4, 37° C. before exposing cells to the various conditions at 37° C. Control cells were maintained in the HEPES-buffered media under room air. Hypoxia was produced by placing the cells in a hypoxic incubator (NuAire) where O2 was replaced by N2. The % O2 was monitored by both an oxygen Fyrite Gas Analyzer (Bacharach) and an oxygen analyzer (Model OX630, Engineered Systems & Designs). Preconditioning was induced by exposing the cells to five minutes of hypoxia, termed preconditioning hypoxia, prior to a second ninety-minute hypoxia. Cells not subjected to preconditioning were exposed to ninety minutes of hypoxia only (nonpreconditioned cells). The extracellular pH was similarly maintained at 7.4 by HEPES in both preconditioned and nonpreconditioned cells. Determination of basal level of cell injury was made after parallel incubation of control cells under normal % O2. For preconditioned and nonpreconditioned cells, determination of cell injury was made at the end of the ninety-minute hypoxic period.
The extent of hypoxia-induced injury to the ventricular cell was quantitatively determined by the percentages of cells killed and by the amount of creatine kinase (CK) released into the media. To quantitate the % cells killed, cells were exposed to a trypsin-EDTA Hanks' balanced salt solution for 10 minutes for detachment after the various treatment, followed by centrifugation (300 × g for 10 minutes) and resuspension in culture media for counting in a hemocytometer. Only live cells sedimented and the cells counted represented those that survived (29). None of the sedimented cells subsequently counted included trypan blue. […] There was no protein or CK in the culture media following a second 300 × g centrifugation of resuspended cells previously treated with trypsin-EDTA. […] In contrast, the trypsin-EDTA media from cells exposed to 90 minutes of hypoxia contained substantial amount of proteins (0.15±0.03 mg, n=9) and CK activity (16±3 unit/mg protein, n=8). […] Because trypsin may cause further proteolysis of proteins and CK, the amount of protein and CK retained by the damaged cells in the trypsin-EDTA media may not accurately reflect those associated with the damaged cells. In support of the notion that exposure to 90 minutes of hypoxia caused significant cell injury and loss of membrane integrity, there was also marked release of LDH (hypoxia-exposed cells, 35.5±2.7, unit/mg, n=8, ±S.E. vs. control cells, 6.1±0.4 unit/mg, n=8) and proteins (hypoxia-exposed cells, 0.15±0.03 mg, n=8 vs. control cells, 0.034±0.01 mg, n=8) from the cells incubated under prolonged hypoxia. Thus, the cell viability assay separated out the hypoxia-damaged from the control normoxia-exposed cells. […] The amount of CK was measured as enzyme activity (unit/mg), and increases in CK activity above the control level were determined. The percentage of cells killed was calculated as the number of cells obtained from the control group (representing cells not subjected to any hypoxia or drug treatment) minus the number of cells from the treatment group divided by number of cells in control group multiplied by 100%.
To investigate the role of adenosine in mediating the preconditioning effect, the ventricular cells, instead of being exposed to the brief hypoxia, were incubated with adenosine (10 μM) for 5 minutes prior to the ninety minute hypoxia. In adenosine-treated cells, media were replaced with adenosine-free media for ten minutes prior to a ninety-minute hypoxic exposure. […]

[3] = test system: ventricular cells cultured from chick embryos; assay: 45Ca uptake in cultured ventricular cells; format: cell-based; conditions: isoproterenol 0.3 μM, forskolin 1 μM, BayK 8644 0.1 μM; data not shown
Description: Determination of ^45 Ca uptake was made according to a modification of previously described method (20). Cultures were incubated with L-(3, 4, 5-^3 H, N)-leucine (152.2 Ci/mmol) for a 24 hour prior to ^45 Ca uptake. [^3 H] leucine incorporated into the cellular protein allowed normalization of ^45 Ca content to mg cell protein. After incubation with ^45 Ca-containing medium, cells were then washed free of ^45 Ca and solubilized for 2 hours with 1% sodium dodecyl sulfate and 10 mM sodium borate and the levels of ^3 H and ^45 Ca were determined. For all data comparing the effect of different agents on ^45 Ca uptake, one-way ANOVA analysis followed by group comparison with t-test was carried out at each time point of the ^45 Ca uptake. Cyclic AMP level was determined according to a previously described radioimmunoassay (27).

COc1ccccc1/C=C/c1nc2c(c(=O)n(C)c(=O)n2C)n1C [17b]
A1/A2 ratio (A2a receptor selectivity ratio) [1]: 18

COc1cccc(/C=C/c2nc3c(c(=O)n(C)c(=O)n3C)n2C)c1 [19b]
A1/A2 ratio (A2a receptor selectivity ratio) [1]: 64

Cn1c(=O)c2c(nc(/C=C/c3cccc(C(F)(F)F)c3)n2C)n(C)c1=O [20b]
A1/A2 ratio (A2a receptor selectivity ratio) [1]: 25

Cn1c(=O)c2c(nc(/C=C/c3cccc([N+](=O)[O-])c3)n2C)n(C)c1=O [21b]
A1/A2 ratio (A2a receptor selectivity ratio) [1]: 11

Cn1c(=O)c2c(nc(/C=C/c3cccc(N)c3)n2C)n(C)c1=O [22b]
A1/A2 ratio (A2a receptor selectivity ratio) [1]: 30

Cn1c(=O)c2c(nc(/C=C/c3cccc(F)c3)n2C)n(C)c1=O [27b]
A1/A2 ratio (A2a receptor selectivity ratio) [1]: 190

COc1ccc(/C=C/c2nc3c(c(=O)n(C)c(=O)n3C)n2C)cc1 [29b]
A1/A2 ratio (A2a receptor selectivity ratio) [1]: 44

COc1ccc(/C=C/c2nc3c(c(=O)n(C)c(=O)n3C)n2C)cc1OC [32b]
A1/A2 ratio (A2a receptor selectivity ratio) [1]: 70

COc1cc(/C=C/c2nc3c([nH]2)c(=O)n(C)c(=O)n3C)cc(OC)c1 [33a]
A1/A2 ratio (A2a receptor selectivity ratio) [1]: 25

COc1cc(/C=C/c2nc3c(c(=O)n(C)c(=O)n3C)n2C)cc(OC)c1 [33b]
A1/A2 ratio (A2a receptor selectivity ratio) [1]: > 200

Cn1c(=O)c2c(nc(/C=C/c3cc(F)cc(F)c3)n2C)n(C)c1=O [34b]
A1/A2 ratio (A2a receptor selectivity ratio) [1]: 230

COc1ccc(/C=C/c2nc3c(c(=O)n(C)c(=O)n3C)n2C)c(OC)c1OC [43b]
A1/A2 ratio (A2a receptor selectivity ratio) [1]: 34

COc1cc(/C=C/c2nc3c(c(=O)n(C)c(=O)n3C)n2C)cc(OC)c1OC [44b]
A1/A2 ratio (A2a receptor selectivity ratio) [1]: 70

CCCn1c(=O)c2c(nc(/C=C/c3cc(OC)cc(OC)c3)n2C)n(CCC)c1=O [53b]
A1/A2 ratio (A2a receptor selectivity ratio) [1]: 110

Nc1ncnc2c1ncn2[C@@H]1O[C@H](CO)[C@@H](O)[C@H]1O [Adenosine, adenosine]
Ability to replace preconditioning hypoxia (protection against injury by ninety-minute hypoxia; % cells killed, CK released) [2]: significant attenuation of the injury

COC(=O)C1=C(C)NC(C)=C([N+](=O)[O-])C1c1ccccc1C(F)(F)F (stereo not drawn) [BayK 8644]
Calcium influx into the cultured cells [3]: induced increased calcium influx | Ability to replace preconditioning hypoxia (protection against injury by ninety-minute hypoxia; % cells killed, CK released) [2]: Neither isoproterenol, forskolin nor BayK8644 had any effect on the level of protection | Effect on protection by preconditioning hypoxia (% cells killed, CK released) [2]: caused an increase in % cells killed and amount of CK released

CNC(=O)[C@H]1O[C@@H](n2cnc3c(NCc4cccc(I)c4)nc(Cl)nc32)[C@H](O)[C@@H]1O [C1-IB-MECA, 2-chloro-N^6-(3-iodobenzyl)adenosine-5'-N-methyluronamide]
EC (maximal effect) [2]: 0.1 µM | Ability to replace preconditioning hypoxia (protection against injury by ninety-minute hypoxia; % cells killed, CK released) [2]: can replace preconditioning hypoxia and simulate preconditioning

OC[C@H]1O[C@@H](n2cnc3c(NC4CCCC4)nc(Cl)nc32)[C@H](O)[C@@H]1O [CCPA]
EC (maximal effect) [2]: 0.1 µM | Ability to replace preconditioning hypoxia (protection against injury by ninety-minute hypoxia; % cells killed, CK released) [2]: can replace preconditioning hypoxia and simulate preconditioning

C[C@H](Cc1ccccc1)Nc1ncnc2c1ncn2[C@@H]1O[C@H](CO)[C@@H](O)[C@H]1O [R-PIA, N^6 -R-phenyl-2-propyl adenosine]
Ability to replace preconditioning hypoxia (protection against injury by ninety-minute hypoxia; % cells killed, CK released) [2]: could substitute for preconditioning hypoxia and induce preconditioning

CC(=O)Nc1cccc(/C=C/c2nc3c(c(=O)n(C)c(=O)n3C)n2C)c1 [compound 23]
A1/A2 ratio (A2a receptor selectivity ratio) [1]: 240

Cn1c(=O)c2c(nc(/C=C/c3cccc(NC(=O)CCC(=O)O)c3)n2C)n(C)c1=O [compound 24]
A1/A2 ratio (A2a receptor selectivity ratio) [1]: 250

Cn1c(=O)c2c(nc(/C=C/c3cccc(NC(=O)OC(C)(C)C)c3)n2C)n(C)c1=O [compound 25]
A1/A2 ratio (A2a receptor selectivity ratio) [1]: 30

Cn1c(=O)c2c(nc(/C=C/c3cccc(N(C(=O)OC(C)(C)C)C(=O)OC(C)(C)C)c3)n2C)n(C)c1=O [compound 26]
A1/A2 ratio (A2a receptor selectivity ratio) [1]: 15

Cn1c(=O)c2c(nc(/C=C/c3cccc(Cl)c3)n2C)n(C)c1=O [compound 28, 8-(3-chlorostyryl)caffeine]
Effect on R-PIA-induced preconditioning (% cells killed, CK released) ([2]; CSC present during 5-min treatment with 10 μM R-PIA, P<0.01): enhanced the preconditioning effect | Ability to replace preconditioning hypoxia (protection against injury by ninety-minute hypoxia; % cells killed, CK released) [2]: had no effect on the extent of injury | Effect on protection by preconditioning hypoxia (% cells killed, CK released) [2]: increased protection

COc1cc(/C=C/c2nc3c(c(=O)n(C)c(=O)n3C)n2C)cc(OC)c1O [compound 35]
A1/A2 ratio (A2a receptor selectivity ratio) [1]: 19

COc1cc(/C=C/c2nc3c(c(=O)n(C)c(=O)n3C)n2C)cc(OC)c1OC(C)=O [compound 36]
A1/A2 ratio (A2a receptor selectivity ratio) [1]: 93

COc1cc(/C=C/c2nc3c(c(=O)n(C)c(=O)n3C)n2C)cc(OC)c1OCc1ccccc1 [compound 37]
A1/A2 ratio (A2a receptor selectivity ratio) [1]: 30

COc1cc(/C=C/c2nc3c(c(=O)n(C)c(=O)n3C)n2C)cc(OC)c1OCCCCN [compound 38]
A1/A2 ratio (A2a receptor selectivity ratio) [1]: 36

COc1cc(/C=C/c2nc3c(c(=O)n(C)c(=O)n3C)n2C)cc(OC)c1OCCCCNC(=O)OC(C)(C)C [compound 39]
A1/A2 ratio (A2a receptor selectivity ratio) [1]: 42

COc1cc(/C=C/c2nc3c(c(=O)n(C)c(=O)n3C)n2C)cc(OC)c1OC/C=C/CN [compound 40]
A1/A2 ratio (A2a receptor selectivity ratio) [1]: 28

COc1cc(/C=C/c2nc3c(c(=O)n(C)c(=O)n3C)n2C)cc(OC)c1OC/C=C/CNC(C)=O [compound 41]
A1/A2 ratio (A2a receptor selectivity ratio) [1]: > 50

COc1cc(/C=C/c2nc3c(c(=O)n(C)c(=O)n3C)n2C)cc(OC)c1OC/C=C/CNC(=O)OC(C)(C)C [compound 42]
A1/A2 ratio (A2a receptor selectivity ratio) [1]: > 40

C=CCn1c(=O)c2c(nc(/C=C/c3cc(OC)c(OC)c(OC)c3)n2C)n(CC=C)c1=O [compound 46]
A1/A2 ratio (A2a receptor selectivity ratio) [1]: 13
